Series [1] concerns RNA methyltransferase from Streptomyces antibioticus. The note with it: 100 μM; cited from earlier work.
Another series has as its system methyl transfer from SAM. The note with it: cited from earlier work.
For series [2] the following is noted: dogs; cited from earlier work.
The test system of series [3] is S. aureus 27660 (erythromycin resistant). The format is cell-based. The note with it: for enhanced killing with erythromycin: in combination with erythromycin.
A further series relates to cytotoxicity. The note with it: cited from earlier work.
Series [4] concerns 28S rRNA, 18S rRNA and tRNA. The note with it: NPA 10 μM; c^3 -NPA 10 μM; c^3 -Ari 100 μM; cited from earlier work.
The test system of a further series is SAHH hydrolase. The note with it: cited from earlier work.
The subject of series [5] is vaccinia virion mRNA(nucleoside-2'-)methyltransferase. The note with it: cited from earlier work.
Another series concerns tRNA methylases. The note with it: cited from earlier work.
The test system of another series is poly(A)-RNA methylation. The note with it: inhibitor level that still permitted cell growth; cited from earlier work.
The conditions of series [6]: not told; cited from earlier work.
The test system of series [7] is nucleosidase enzymes responsible for SAH metabolism. The note with it: cited from earlier work.
The next series deals with polyamine biosynthesis. The note with it: cited from earlier work.
The subject of series [8] is SAM-dependent methylations. The note with it: cited from earlier work.
Series [9] has as its system S. aureus 6538 (erythromycin susceptible). Nature of the series: Erythromycin disk susceptibility with inhibitor pre-mixed in agar. The format is cell-based. The note with it: inhibitor pre-mixed with BHIA or TSA, with erythromycin (FIG. 2).
The test system of series [10] is S. aureus 27660 (erythromycin resistant). Nature of the series: Erythromycin disc susceptibility after pre-incubation with inhibitor discs (second procedure). The note with it: 310 μg/disc, pre-incubation 0-5 hours, 18 hours incubation (FIG. 4).
Series [11] deals with N- and O-methylation of mRNA. The note with it: 100 μM; cited from earlier work.
Series [12] concerns Staphylococcus aureus, methicillin susceptible. The note with it: in µg/mL; cited from earlier work.
The test system of series [13] is Staphylococcus aureus, methicillin resistant. The note with it: cited from earlier work.
The subject of series [14] is Streptococcus pyogenes (group A), erythromycin susceptible. The note with it: cited from earlier work.
For a further series, the system named is Streptococcus pneumoniae. The note with it: in µg/mL; cited from earlier work.
Another series has as its system Streptococcus bovis. The note with it: cited from earlier work.
The subject of series [15] is E. faecalis (Erythromycin susceptible). The note with it: cited from earlier work.
Series [16] relates to E. faecalis (Erythromycin resistant). The note with it: cited from earlier work.
The next series has as its system Viridans streptococci. The note with it: cited from earlier work.
Series [17] has as its system Coagulase-negative staphylococci, methicillin resistant. The note with it: cited from earlier work.
Another series concerns Listeria monocytogenes. The note with it: in µg/mL; cited from earlier work.
A further series has as its system Haemophilus influenzae. The note with it: in µg/mL; cited from earlier work.
In a further series the test system is Moraxella catarrhalis. The note with it: in µg/mL; cited from earlier work.
Another series has as its system Neisseria gonorrhoeae. The note with it: in µg/mL; cited from earlier work.
For the next series, the system named is N. meningitidis. The note with it: in µg/mL; cited from earlier work.
In another series the test system is Pasteurella multocida. The note with it: cited from earlier work.
The next series relates to Bordetella pertussis. The note with it: in µg/mL; cited from earlier work.
The subject of the next series is Legionella pneumophila. The note with it: in µg/mL; cited from earlier work.
Another series relates to Campylobacter species. The note with it: in µg/mL; cited from earlier work.
For series [18], the system named is Gram-positive cocci (peptococcus, peptostreptococcus). The note with it: anaerobes; cited from earlier work.
In another series the test system is Bacteroides fragilis. The note with it: anaerobes; in µg/mL; cited from earlier work.
A further series concerns Clostridium perfringens. The note with it: anaerobes; in µg/mL; cited from earlier work.
Another series relates to Chlamydia trachomatis. The note with it: in µg/mL; cited from earlier work.
Another series deals with Mycoplasma pneumoniae. The note with it: in µg/mL; cited from earlier work.
For series [19] the following is noted: cited from earlier work.
The test system of series [20] is transfer and ribosomal RNA (tRNA and rRNA) methylases. The note with it: cited from earlier work.
The next series deals with Mycobacterium leprae. The note with it: 12 μg/mouse every 12 hours, 15 doses, local; cited from earlier work.
In series [21] the test system is vaccinia virion mRNA(guanine-7)methyltransferase. The note with it: 100 μM; cited from earlier work.
The next series relates to RNA methyltransferase. The note with it: cited from earlier work.
The next series deals with SAH hydrolase. The note with it: cited from earlier work.
For series [22], the system named is vesicular stomatitis virus. The note with it: primary rabbit kidney cells; cited from earlier work.
A further series deals with human retrovirus. The note with it: cited from earlier work.
A further series has as its system malarial growth. The note with it: read-out: ED50 (the source's name); cited from earlier work.
The next series has as its system vaccinia virus. The note with it: cited from earlier work.
The subject of another series is RNA methylation. The note with it: cited from earlier work.
The subject of series [23] is cell transformation by Rous sarcoma virus. The note with it: concentrations not toxic to normal cells; cited from earlier work.
For series [24], the system named is porcine liver tRNA methyltransferase. The note with it: cited from earlier work.
The conditions of series [25]: sc., rats; cited from earlier work.
A further series has as its system hamster liver SAHH. The note with it: cited from earlier work.
Another series relates to human liver SAHH. The note with it: cited from earlier work.

Converted amounts (≈) assume the structure as drawn. Like-named read-outs stand apart in the source and are kept apart here.

A word on the inhibition: it is the drop in the measured response relative to a control, in per cent. As for `Nc1ncnc2c1ncn2[C@@H]1O[C@H](CSCC[C@H](N)C(=O)O)[C@@H](O)[C@H]1O` [S-Adenosylhomocysteine, S-adenosylhomocysteine], the inhibition in [1] is given as 97%; in the series on methyl transfer from SAM, “effective inhibitors”. Moreover, the uptake and excretion entry in series [2] is “not taken up and excreted unchanged in urine”.
On to `Nc1nccc2c1ncn2[C@@H]1C=C(CO)[C@@H](O)[C@H]1O` [3-Deazaneplanocin A, 3-deazaneplanocin A], for which, in series [3], the “enhanced killing with erythromycin” value is on record as “enhanced the killing”. Also, the “cytotoxicity relative to neplanocin A” value in the series on cytotoxicity is on record as “significantly less cytotoxic than neplanocin A”. Also, the “methylation of 28S rRNA, 18S rRNA and tRNA” value in series [4] is “inhibit the methylation of 28S rRNA, 18S rRNA and tRNA”. Besides, the “antiviral activity and cytotoxicity vs first generation” value with SAHH hydrolase is “retained antiviral activity and considerably lower cytotoxicity than their parent first generation inhibitors”.
Regarding `Nc1ncnc2c1ccn2[C@@H]1O[C@H](CSCCC(N)C(=O)O)[C@@H](O)[C@H]1O` (stereo partly shown) [STH, S-Tubercidinylhomocysteine], the inhibition entry in series [5] was “particularly potent inhibitor”. In addition, the “inhibition of tRNA methylases relative to SAH” value with tRNA methylases is given as “retains the inhibitory potency of SAH on tRNA methylases”. Besides, the “inhibition of poly(A)-RNA methylation” value with poly(A)-RNA methylation is “Inhibition of cytoplasmic methylation”. Moreover, the membrane permeation result in series [6] is “able to permeate cell membranes”. The susceptibility to nucleosidase result in series [7] is given as “not susceptible to the nucleosidase enzymes”.
Turning to `CSC[C@H]1O[C@@H](n2cnc3c(N)ncnc32)[C@H](O)[C@@H]1O` [Methylthioadenosine, 5'-Deoxy-5'-(methylthio)adenosine], the “enhanced killing with erythromycin” value in [3] is recorded as “enhanced the killing”. For the same molecule, in the series on polyamine biosynthesis, the “inhibition of spermine and spermidine synthesis” value was “inhibitor of spermine and spermidine synthesis”. In addition, the inhibition entry with methyl transfer from SAM is “effective inhibitors”. In addition, in series [8], the “inhibition of SAM-dependent methylations” value is reported as “inhibitor of several SAM-dependent methylations”.
Regarding `CCSCC[C@H](N)C(=O)O` [Ethionine], the “increase in the size of the clear zone” value in [3] (inhibitor pre-mixed with BHIA or TSA, with erythromycin (FIG. 3)) is “increase in the size of the clear zone”; in [9] it was “increase in the size of the clear zone”. Also, the “increase in clear zones relative to erythromycin alone” value in [10] is listed as “Increases in clear zones were observed”.
For the molecule `Nc1nccc2c1ncn2[C@@H]1O[C@H](CO)[C@@H](O)[C@H]1O` [3-deazaadenosine], in [11], the “inhibition of N- and O-methylation of mRNA” value is listed as 31-83%.
For `CC[C@H]1OC(=O)[C@H](C)[C@@H](O[C@H]2C[C@@](C)(OC)[C@@H](O)[C@H](C)O2)[C@H](C)[C@@H](O[C@@H]2O[C@H](C)C[C@H](N(C)C)[C@H]2O)[C@](C)(O)C[C@@H](C)CN(C)[C@H](C)[C@@H](O)[C@]1(C)O` [Azithromycin], the MIC90 in series [12] was 1.0; in series [13], more than 128 mg/L; in [14], 0.12 mg/L (≈ 0.16 µM); in the series on Streptococcus pneumoniae, 0.12; with Streptococcus bovis it was 0.25 mg/L (≈ 0.334 µM); in series [15] it was 8 mg/L (≈ 10.7 µM). Further, the MIC90 in series [16] was more than 64 mg/L; in the series with Viridans streptococci, 16 mg/L (≈ 21.4 µM); in series [17], more than 128 mg/L; with Listeria monocytogenes, 4.0; in the series with Haemophilus influenzae, 1.0; in the series with Moraxella catarrhalis, 0.5. In addition, the MIC90 with Neisseria gonorrhoeae was 0.15; with N. meningitidis, 0.12; in the series with Pasteurella multocida, 0.5 mg/L (≈ 0.668 µM); with Bordetella pertussis, 0.12; with Legionella pneumophila it was 0.25-2.0; with Campylobacter species it was 0.25. Besides, the MIC90 in series [18] is 2 mg/L (≈ 2.67 µM); in the series on Bacteroides fragilis it was 8.0; in the series with Clostridium perfringens, 1.0; in the series on Chlamydia trachomatis, 0.12-0.25; in the series on Mycoplasma pneumoniae, 0.001. Also, in series [19], the tissue half-life result is on record as “prolonged tissue half-life”.
Take polyinosinate: in series [20], the “combination with adenine and adenosine” value is “particularly effective in combination with adenine and adenosine”; the “inhibition of tRNA and rRNA methylases” value was “inhibits transfer and ribosomal RNA (tRNA and rRNA) methylases”. For the same molecule, in [20] (methylases of individual bases), the inhibition by base entry is “inhibition of adenine methylases occurred to the greatest extent and guanine methylases to the least”. Moreover, in the series with Mycobacterium leprae, the “multiplication of M. leprae” value is recorded as “inhibit multiplication of Mycobacterium leprae”.
As to `CNc1ncnc2c1ncn2[C@@H]1O[C@H](CSCC[C@H](N)C(=O)O)[C@@H](O)[C@H]1O` [S-(N^6 -methyladenosyl)-L-homocysteine], the inhibition in series [21] is 85%. Further, the “potency relative to SAH” value in the series with RNA methyltransferase is on record as “nearly as potent an RNA methyltransferase inhibitor as SAH”.
Usually Ki stands for a measure of affinity in units of concentration, obtained from inhibition or displacement. Take `Nc1ncnc2c1ncn2[C@@H]1C=C(CO)[C@@H](O)[C@H]1O` [NPA, neplanocin A]: at SAH hydrolase (De Clercq & Cools (1985)), the Ki is 0.002 µM. For the same molecule, the SAH hydrolase inhibition entry in the series with SAH hydrolase is listed as “potent inhibitor of SAH hydrolase”. Also, the “minimum inhibitor concentration (50% reduction of cytopathogenicity)” value in series [22] is 0.018 mg/L. Besides, the effective inhibitory concentration in the series with human retrovirus was approximately 0.2 µg/mL. In the series with malarial growth, the IC50 is 3 µM. Also, the “inhibition of plaque formation” value with vaccinia virus (0.5 μM) is 84%; in the series on vaccinia virus (1 μM), 95%. Besides, the “toxicity to the host cells” value in the series with vaccinia virus (0.5 and 1 μM) was “little toxicity to the host cells”.
In the case of `CC(C)CSC[C@H]1O[C@@H](n2cnc3c(N)ncnc32)[C@H](O)[C@@H]1O` [SIBA, 5'-deoxy-5'-S-isobutyl-adenosine], the inhibition in series [1] was 55%. The “inhibition of RNA methylation” value with RNA methylation (1 mM) is reported as ~ 65%. Moreover, the “inhibition of methylation in whole cells” value in the series on RNA methylation is “strongly inhibit methylation in whole cells”. Moreover, in the series with RNA methylation (especially that of the 5' cap), the “methylation of eukaryotic mRNA” value is recorded as “inhibits the methylation of eukaryotic mRNA”. Also, the potency as inhibitor result in series [23] is listed as “most potent”.
As a reminder, the LD50 is the dose expected to kill half of the subjects tested. In the case of `NC(=O)c1cccnc1` [Nicotinamide], the “inhibition of tRNA methyltransferase” value in series [24] was “inhibition of porcine liver tRNA methyltransferase activity”. For the same molecule, the LD50 in [25] is 1680 mg/kg.
Take `Nc1ncnc2c1ncn2[C@@H]1O[C@H](CO)[C@@H](O)[C@H]1Cl` [CLA, 2'-deoxy-2'-chloroadenosine]: the inhibition result with hamster liver SAHH and with human liver SAHH was “inhibitor” in each case.
